Source: ChEMBL document CHEMBL4699592, “Nature-Inspired (di)Azine-Bridged Bisindole Alkaloids with Potent Antibacterial In Vitro and In Vivo Efficacy against Methicillin-Resistant Staphylococcus aureus” (J Med Chem, 2020)
Converted amounts (≈) assume the structure as drawn. The source made the active and inactive calls. The rule behind the calls is not given here.

What was measured:
[1] = tested on: Erythrocyte; experiment: Hemolytic activity against sheep erythrocytes up to 100 uM measured after 1 hr; assay type: ADME, cell-based, Ovis aries
[2] = tested on: Escherichia coli; experiment: Synergistic antimicrobial activity against Escherichia coli ATCC BAA 2469 assessed as FIC after 24 hrs in presence of colistin by checkerboard assay relative to colistin; assay type: functional
[3] = tested on: Pseudomonas aeruginosa; experiment: Antibacterial activity against Pseudomonas aeruginosa ATCC 27853 measured after 24 hrs by broth microdilution method; assay type: functional
[4] = tested on: Klebsiella pneumoniae; experiment: Antibacterial activity against Klebsiella pneumoniae ATCC 700603 after 24 hrs in presence of colistin by checkerboard assay relative to test compound MIC; assay type: functional
[5] = tested on: Staphylococcus aureus; experiment: Antibacterial activity against methicillin susceptible Staphylococcus aureus ATCC 25923 at 0.78 to 100 uM after 24 hrs by broth microdilution method; assay type: functional, organism-based; settings: dose microM 0.78-100, time 24.0 hrs
[6] = tested on: Klebsiella pneumoniae; experiment: Synergistic antibacterial activity against Klebsiella pneumoniae ATCC 700603 assessed as FIC after 24 hrs in presence of colistin by checkerboard assay relative to test compound MIC; assay type: functional
[7] = tested on: Mycobacterium tuberculosis; experiment: Antibacterial activity against Mycobacterium tuberculosis H37Rv at 0.78 to 100 uM after 5 days by resazurin dye based fluorescence assay; assay type: functional, organism-based; settings: dose microM 0.78-100, time 5.0 day
[8] = tested on: THP-1; experiment: Cytotoxicity against human THP-1 cells assessed as reduction in cell viability at >=12.5 uM measured after 48 hrs by resazurin dye based fluorescence assay; settings: thp-1, 48 h
[9] = tested on: MRC5; experiment: Cytotoxicity against human MRC5 cells assessed as reduction in cell viability at >=12.5 uM measured after 48 hrs by resazurin dye based fluorescence assay; settings: mrc5, 48 h
[10] = tested on: Enterococcus faecium; experiment: Antibacterial activity against vancomycin-resistant Enterococcus faecium ATCC 700221 at 0.78 to 100 uM after 24 hrs by broth microdilution method; assay type: functional, organism-based; settings: dose microM 0.78-100, time 24.0 hrs
[11] = tested on: Staphylococcus aureus; experiment: Antibacterial activity against […] Staphylococcus aureus ATCC 700699 assessed as ratio of MIC before and after 38 passages by broth microdilution method; assay type: functional
[12] = Selectivity index, ratio of IC50 for cytotoxicity against human THP-1 cells to MIC90 for antibacterial activity against […] Staphylococcus aureus ATCC 700699; assay type: toxicity, cell-based; settings: read-out: Selectivity Index
[13] = tested on: Pseudomonas aeruginosa; experiment: Synergistic antibacterial activity against Pseudomonas aeruginosa ATCC 27853 assessed as FICI after 24 hrs in presence of colistin by checkerboard assay; assay type: functional
[14] = tested on: Acinetobacter baumannii; experiment: Synergistic antibacterial activity against Acinetobacter baumannii ATCC BAA-1605 assessed as FICI after 24 hrs in presence of colistin by checkerboard assay; assay type: functional
[15] = tested on: Klebsiella pneumoniae; experiment: Synergistic antibacterial activity against Klebsiella pneumoniae ATCC 700603 assessed as FIC after 24 hrs in presence of colistin by checkerboard assay relative to colistin; assay type: functional
[16] = tested on: Pseudomonas aeruginosa; experiment: Synergistic antibacterial activity against Pseudomonas aeruginosa ATCC 27853 assessed as FIC after 24 hrs in presence of colistin by checkerboard assay relative to test compound MIC; assay type: functional
[17] = tested on: Pseudomonas aeruginosa; experiment: Synergistic antibacterial activity against Pseudomonas aeruginosa ATCC 27853 assessed as FIC after 24 hrs in presence of colistin by checkerboard assay relative to colistin; assay type: functional
[18] = Solubility of compound in pH 7.7 PBS buffer; assay type: physicochemical
[19] = tested on: Escherichia coli; experiment: Antimicrobial activity against Escherichia coli ATCC BAA 2469 after 24 hrs by broth microdilution assay; assay type: functional
[20] = tested on: Staphylococcus aureus; experiment: Antibacterial activity against vancomycin-sensitive Staphylococcus aureus T144 infected in Balb/c mouse assessed as increase in wound healing at 5 mg/kg applied topically measured daily for 12 days by microscopic analysis; assay type: functional, organism-based; settings: time 12.0 day
[21] = tested on: Acinetobacter baumannii; experiment: Synergistic antibacterial activity against Acinetobacter baumannii ATCC BAA-1605 assessed as FIC after 24 hrs in presence of colistin by checkerboard assay relative to colistin; assay type: functional
[22] = Selectivity index, ratio of IC50 for cytotoxicity against human MRC5 cells to MIC90 for antibacterial activity against […] Staphylococcus aureus ATCC 700699; assay type: toxicity, cell-based; settings: read-out: Selectivity Index
[23] = tested on: Escherichia coli; experiment: Synergistic antimicrobial activity against Escherichia coli ATCC BAA 2469 assessed as FICI after 24 hrs in presence of colistin by checkerboard assay; assay type: functional
[24] = tested on: Escherichia coli; experiment: Synergistic antimicrobial activity against Escherichia coli ATCC BAA 2469 assessed as FIC after 24 hrs in presence of colistin by checkerboard assay relative to test compound MIC; assay type: functional
[25] = tested on: Klebsiella pneumoniae; experiment: Synergistic antibacterial activity against Klebsiella pneumoniae ATCC 700603 assessed as FICI after 24 hrs in presence of colistin by checkerboard assay; assay type: functional
[26] = tested on: Enterococcus faecalis; experiment: Antibacterial activity against Enterococcus faecalis ATCC 29212 at 0.78 to 100 uM after 24 hrs by broth microdilution method; assay type: functional, organism-based; settings: dose microM 0.78-100, time 24.0 hrs
[27] = tested on: Klebsiella pneumoniae; experiment: Antibacterial activity against Klebsiella pneumoniae ATCC 700603 after 24 hrs by broth microdilution method; assay type: functional
[28] = tested on: Staphylococcus aureus; experiment: Antibacterial activity against methicillin-resistant Staphylococcus aureus USA300 LAC at 0.15 to 25 uM incubated for 24 hrs under low pyruvate containing medium by resazurin dye based fluorescence assay; assay type: functional, organism-based; settings: dose microM 0.15-25, time 24.0 hrs
[29] = tested on: HepG2; experiment: Cytotoxicity against human HepG2 cells assessed as reduction in cell viability at >12.5 uM measured after 48 hrs by resazurin dye based fluorescence assay; settings: hepg2, 48 h
[30] = tested on: Escherichia coli; experiment: Antimicrobial activity against Escherichia coli ATCC BAA 2469 after 24 hrs in presence of colistin by checkerboard assay relative to test compound MIC; assay type: functional
[31] = tested on: Acinetobacter baumannii; experiment: Synergistic antibacterial activity against Acinetobacter baumannii ATCC BAA-1605 assessed as FIC after 24 hrs in presence of colistin by checkerboard assay relative to test compound MIC; assay type: functional
[32] = target: Pyruvate kinase PKM (Oryctolagus cuniculus) (UniProt P11974); experiment: Inhibition of rabbit muscle pyruvate kinase up to 12.5 uM using phosphoenolpyruvate as substrate measured for 5 mins by LDH-coupled assay; settings: dose microM <=12.5, time 5.0 min
Pyruvate kinase PKM (Oryctolagus cuniculus), sequence (P11974 whole entry): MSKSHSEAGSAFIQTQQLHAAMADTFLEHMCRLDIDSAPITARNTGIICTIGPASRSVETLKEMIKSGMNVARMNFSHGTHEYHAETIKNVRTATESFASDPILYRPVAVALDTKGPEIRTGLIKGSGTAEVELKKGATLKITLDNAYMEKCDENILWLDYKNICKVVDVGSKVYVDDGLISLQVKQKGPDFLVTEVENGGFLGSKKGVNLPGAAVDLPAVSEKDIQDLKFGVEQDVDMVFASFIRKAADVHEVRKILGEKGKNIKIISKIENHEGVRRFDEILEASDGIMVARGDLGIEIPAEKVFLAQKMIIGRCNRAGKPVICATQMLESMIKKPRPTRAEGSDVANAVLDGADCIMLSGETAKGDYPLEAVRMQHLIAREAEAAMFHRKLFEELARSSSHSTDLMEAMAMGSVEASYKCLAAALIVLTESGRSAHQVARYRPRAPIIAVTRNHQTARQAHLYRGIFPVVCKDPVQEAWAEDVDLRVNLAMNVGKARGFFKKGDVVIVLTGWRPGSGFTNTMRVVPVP

[33] = tested on: Acinetobacter baumannii; experiment: Antibacterial activity against Acinetobacter baumannii ATCC BAA-1605 at 0.78 to 100 uM after 24 hrs by broth microdilution method; assay type: functional, organism-based; settings: dose microM 0.78-100, time 24.0 hrs
[34] = tested on: Staphylococcus aureus; experiment: Antibacterial activity against methicillin-resistant Staphylococcus aureus USA300 LAC at 0.15 to 25 uM incubated for 24 hrs under low glucose medium by resazurin dye based fluorescence assay; assay type: functional, organism-based; settings: dose microM 0.15-25, time 24.0 hrs
[35] = tested on: Staphylococcus aureus; experiment: Antibacterial activity against vancomycin-sensitive Staphylococcus aureus T144 infected in Balb/c mouse peritonitis-sepsis model assessed as increase in survival at 5 mg/kg, ip measured for 48 hrs; assay type: functional, organism-based
[36] = tested on: HEK293; experiment: Cytotoxicity against HEK293 cells assessed as reduction in cell viability at >12.5 uM measured after 48 hrs by resazurin dye based fluorescence assay; settings: human, hek293, 48 h
[37] = tested on: Enterococcus faecium; experiment: Antibacterial activity against vancomycin-resistant Enterococcus faecium ATCC 35667 at 0.78 to 100 uM after 24 hrs by broth microdilution method; assay type: functional, organism-based; settings: dose microM 0.78-100, time 24.0 hrs
[38] = tested on: Staphylococcus aureus; experiment: Inhibition of Staphylococcus aureus ATCC 700699 N-terminal His6-tagged pyruvate kinase expressed in Escherichia coli NiCo21(DE3) at 12.5 uM using phosphoenolpyruvate as substrate measured for 5 mins by LDH-coupled assay
[39] = Cytotoxicity against human CLS-54 cells assessed as reduction in cell viability at >12.5 uM measured after 48 hrs by resazurin dye based fluorescence assay; settings: cls-54, 48 h
[40] = Solubility of compound in pH 7.7 DMSO:PBS solution; assay type: physicochemical; settings: buffer
[41] = tested on: Staphylococcus aureus; experiment: Antibacterial activity against vancomycin-sensitive Staphylococcus aureus T144 infected in Balb/c mouse assessed as reduction in bacterial burden at 5 mg/kg applied topically measured after 12 days by colony counting method; assay type: functional, organism-based; settings: time 12.0 day
[42] = tested on: Staphylococcus aureus; experiment: Bactericidal activity against […] Staphylococcus aureus ATCC 700699 assessed as reduction in bacterial viability at 5 fold MIC incubated for 6 hrs by time kill assay relative to control; assay type: functional
[43] = tested on: Enterococcus faecalis; experiment: Antibacterial activity against Enterococcus faecalis ATCC 51299 at 0.78 to 100 uM after 24 hrs by broth microdilution method; assay type: functional, organism-based; settings: dose microM 0.78-100, time 24.0 hrs
[44] = tested on: Staphylococcus aureus; experiment: Bactericidal activity against […] Staphylococcus aureus ATCC 700699 assessed as colony forming units at 5 fold MIC measured after 24 hrs by time kill assay; assay type: functional
[45] = tested on: Staphylococcus aureus; experiment: Antibacterial activity against […] Staphylococcus aureus ATCC 700699 after 24 hrs by broth microdilution method; assay type: functional
[46] = tested on: Acinetobacter baumannii; experiment: Antibacterial activity against Acinetobacter baumannii ATCC BAA-1605 after 24 hrs by broth microdilution method; assay type: functional
[47] = tested on: Staphylococcus aureus; experiment: Antibacterial activity against methicillin-resistant pyruvate kinase deficient Staphylococcus aureus USA300 LAC at 0.15 to 25 uM incubated for 24 hrs under low pyruvate containing medium by resazurin dye based fluorescence assay; assay type: functional, organism-based; settings: dose microM 0.15-25, time 24.0 hrs

Clc1ccc2[nH]cc(-c3cnc(-c4c[nH]c5ccc(Cl)cc45)nc3)c2c1
Activity [1]: Non-Toxic | FIC [2]: 0.064 | MIC [3]: > 100 µM | Ratio [4]: 8 | Activity [5]: Active | FIC [6]: <=0.125 | Activity [7]: Active | Activity [8]: Toxic | Activity [9]: Toxic | Activity [10]: Active | Ratio [11]: 2 | selectivity ratio [12]: 32 | fractional inhibitory concentration index (FICI) [13]: <=1.0625 | fractional inhibitory concentration index (FICI) [14]: <=0.3125 | FIC [15]: 0.125 | FIC [16]: <=0.0625 | FIC [17]: 1 | solubility [18]: Insoluble | MIC [19]: > 100 µM | Activity [20]: Active | FIC [21]: 0.25 | selectivity ratio [22]: 32 | fractional inhibitory concentration index (FICI) [23]: <=0.0953 | FIC [24]: <=0.0313 | fractional inhibitory concentration index (FICI) [25]: <=0.25 | Activity [26]: Active | MIC [27]: > 100 µM | Activity [28]: Active | Activity [29]: Toxic | Ratio [30]: 32 | FIC [31]: <=0.0625 | inhibition [32]: inactive | Activity [33]: Active | Activity [34]: Active | Activity [35]: Active | Activity [36]: Toxic | Activity [37]: Active | inhibition [38]: inactive | Activity [39]: Toxic | solubility [40]: Insoluble | Activity [41]: Active | fold change (FC) [42]: 10000 | Activity [43]: Active | Activity [44]: <10 CFU/ml | MIC90 [45]: 0.39 µM (≈ 0.148 µg/mL) | MIC [46]: > 100 µM | Activity [47]: Active
